# The source made the active and inactive calls. The rule behind the calls is not given here.
# Assays:
# [1] = target: T1, DNA topoisomerase 2-alpha (Homo sapiens, UniProt P11388); assay: Inhibition of human DNA topoisomerase 2 catalytic domain-mediated knotted bacteriophage P4Virl dell0 DNA unknotting by agarose gel electrophoresis
# [2] = Inhibition of calf thymus DNA topoisomerase 1 catalytic domain-mediated supercoiled Escherichia coli pUC8 DNA relaxation after 30 mins by agarose gel electrophoresis; parameters: species or system Bos taurus
# [3] = target: T1, DNA topoisomerase 2-alpha; assay: Enhancement of human DNA topoisomerase 2-mediated Escherichia coli pUC8 DNA cleavage after 30 mins by agarose gel electrophoresis; parameters: concentration or dose not given beside the values
# [4] = target: T1, DNA topoisomerase 2-alpha; assay: Inhibition of human DNA topoisomerase 2 catalytic domain-mediated knotted bacteriophage P4Virl dell0 DNA unknotting up to 100 uM by agarose gel electrophoresis
# Bos taurus [5] = species: Bos taurus; assay: Inhibition of calf thymus DNA topoisomerase 1 catalytic domain-mediated supercoiled Escherichia coli pUC8 DNA relaxation up to 100 uM after 30 mins by agarose gel electrophoresis
# [6] = target: T1, DNA topoisomerase 2-alpha; assay: Enhancement of human DNA topoisomerase 2-mediated Escherichia coli pUC8 DNA cleavage assessed as production of linear DNA at 100 ug/ml after 30 mins by agarose gel electrophoresis relative to control
# Escherichia coli = assay: Binding affinity to Escherichia coli pUC8 DNA assessed as production of linear DNA at 100 ug/ml after 30 mins by agarose gel electrophoresis
# [7] = target: T1, DNA topoisomerase 2-alpha; assay: Enhancement of human DNA topoisomerase 2-mediated Escherichia coli pUC8 DNA cleavage assessed as production of linear DNA at 100 ug/ml after 30 mins by agarose gel electrophoresis relative to total DNA
# [8] = target: T1, DNA topoisomerase 2-alpha; assay: Enhancement of human DNA topoisomerase 2-mediated Escherichia coli pUC8 DNA cleavage assessed as production of linear DNA at 30 ug/ml after 30 mins by agarose gel electrophoresis
# [9] = target: T1, DNA topoisomerase 2-alpha; assay: Enhancement of human DNA topoisomerase 2-mediated Escherichia coli pUC8 DNA cleavage assessed as production of linear DNA at 100 ug/ml after 30 mins by agarose gel electrophoresis
# Bos taurus [10] = species: Bos taurus; assay: Inhibition of calf thymus DNA topoisomerase 1 catalytic domain-mediated supercoiled Escherichia coli pUC8 DNA relaxation at 100 uM after 30 mins by agarose gel electrophoresis
# [11] = target: T1, DNA topoisomerase 2-alpha; assay: Inhibition of human DNA topoisomerase 2 catalytic domain-mediated knotted bacteriophage P4Virl dell0 DNA unknotting at 100 uM by agarose gel electrophoresis
# [12] = target: T1, DNA topoisomerase 2-alpha; assay: Inhibition of human DNA topoisomerase 2-mediated Escherichia coli pUC8 DNA cleavage enhancement assessed as reduction of linear DNA production after 30 mins by agarose gel electrophoresis in presence of 10 fold excess genistein
# [13] = target: T1, DNA topoisomerase 2-alpha; assay: Enhancement of human DNA topoisomerase 2-mediated Escherichia coli pUC8 DNA cleavage assessed as production of linear DNA at 3 to 100 ug/ml after 30 mins by agarose gel electrophoresis
# [14] = target: T1, DNA topoisomerase 2-alpha; assay: Inhibition of human DNA topoisomerase 2-mediated Escherichia coli pUC8 DNA cleavage enhancement assessed as absence of linear DNA production after 30 mins by agarose gel electrophoresis in presence of prunetin
# Bos taurus [15] = species: Bos taurus; assay: Inhibition of calf thymus DNA topoisomerase 1-mediated Escherichia coli pUC8 DNA cleavage enhancement assessed as absence of linear DNA production after 30 mins by agarose gel electrophoresis in presence of camptothecin
# [16] = target: T1, DNA topoisomerase 2-alpha; assay: Inhibition of human DNA topoisomerase 2-mediated Escherichia coli pUC8 DNA cleavage enhancement assessed as absence of linear DNA production at 100 ug/ml after 30 mins by agarose gel electrophoresis in presence of 100 ug/ml genistein
# T1 sequence (P11388 whole entry, the tested form may be a part): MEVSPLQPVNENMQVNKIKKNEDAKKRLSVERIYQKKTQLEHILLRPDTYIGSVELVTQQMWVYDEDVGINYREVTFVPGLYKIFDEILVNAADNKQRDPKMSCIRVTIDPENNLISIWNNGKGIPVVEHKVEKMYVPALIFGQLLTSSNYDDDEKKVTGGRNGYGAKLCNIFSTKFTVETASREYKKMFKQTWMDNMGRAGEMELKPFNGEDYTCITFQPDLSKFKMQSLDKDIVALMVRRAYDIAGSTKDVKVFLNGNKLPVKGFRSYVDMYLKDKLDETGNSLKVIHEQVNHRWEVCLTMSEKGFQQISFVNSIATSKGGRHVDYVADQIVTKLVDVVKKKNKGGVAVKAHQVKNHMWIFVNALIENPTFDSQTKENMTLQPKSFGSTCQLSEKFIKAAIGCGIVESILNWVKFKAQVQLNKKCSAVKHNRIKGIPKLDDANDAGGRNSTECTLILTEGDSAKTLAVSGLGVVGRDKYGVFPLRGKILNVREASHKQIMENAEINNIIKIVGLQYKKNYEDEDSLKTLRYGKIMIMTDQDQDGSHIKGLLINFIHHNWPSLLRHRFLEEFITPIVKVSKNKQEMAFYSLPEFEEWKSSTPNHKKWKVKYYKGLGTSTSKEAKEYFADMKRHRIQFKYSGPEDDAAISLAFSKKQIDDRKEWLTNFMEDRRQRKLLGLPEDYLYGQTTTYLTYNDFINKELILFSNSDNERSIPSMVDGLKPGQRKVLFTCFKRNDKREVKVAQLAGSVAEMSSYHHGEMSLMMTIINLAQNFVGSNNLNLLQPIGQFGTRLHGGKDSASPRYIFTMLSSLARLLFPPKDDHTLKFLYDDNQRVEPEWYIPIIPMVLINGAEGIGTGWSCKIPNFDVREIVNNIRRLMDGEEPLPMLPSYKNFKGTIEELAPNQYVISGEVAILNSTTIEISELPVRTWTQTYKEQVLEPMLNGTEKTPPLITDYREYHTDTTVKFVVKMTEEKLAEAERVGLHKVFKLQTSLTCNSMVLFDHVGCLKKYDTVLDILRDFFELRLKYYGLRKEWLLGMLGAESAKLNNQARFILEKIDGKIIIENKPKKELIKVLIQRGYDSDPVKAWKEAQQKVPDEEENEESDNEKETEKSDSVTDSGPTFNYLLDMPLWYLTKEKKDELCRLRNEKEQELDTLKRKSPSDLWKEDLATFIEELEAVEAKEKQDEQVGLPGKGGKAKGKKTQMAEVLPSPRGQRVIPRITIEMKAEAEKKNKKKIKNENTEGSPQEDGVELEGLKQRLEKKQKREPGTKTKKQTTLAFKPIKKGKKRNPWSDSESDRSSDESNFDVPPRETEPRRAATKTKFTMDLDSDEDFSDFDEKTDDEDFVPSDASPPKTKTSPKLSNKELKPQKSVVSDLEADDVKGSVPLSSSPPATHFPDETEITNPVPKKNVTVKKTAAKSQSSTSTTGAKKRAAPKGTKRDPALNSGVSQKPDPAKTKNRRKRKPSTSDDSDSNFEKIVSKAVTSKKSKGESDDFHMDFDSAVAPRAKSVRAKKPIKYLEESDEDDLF
SMILES,IC50 [1] [µM],Activity [3] [%],Activity [4],Activity (Bos taurus [5]),further results
O=c1c(O)c(-c2ccc(O)c(O)c2)oc2cc(O)ccc12 [FISETIN],28.6,< 50,,,IC50 [2]: 20.6 µg/mL
O=c1cc(-c2ccccc2)oc2ccccc12,,,inactive,inactive,
O=C(CCc1ccc(O)cc1)c1c(O)cc(O)cc1O [PHLORETIN],168,,,inactive,
O=c1cc(-c2ccccc2)oc2cccc(O)c12,,< 50,inactive,inactive,
COc1cc(O)c2c(=O)c(-c3ccc(O)cc3)coc2c1,,60,inactive,inactive,Activity [6]: 1.7; Activity (Escherichia coli): inactive; Activity [7]: 9.2%
O=c1c(-c2ccc(O)cc2)coc2cc(O)c(O)cc12,162,,,inactive,
O=c1cc(-c2ccccc2)oc2cc(O)ccc12,,,inactive,inactive,
C[C@@H]1O[C@@H](OC[C@H]2O[C@@H](Oc3c(-c4ccc(O)c(O)c4)oc4cc(O)cc(O)c4c3=O)[C@H](O)[C@@H](O)[C@@H]2O)[C@H](O)[C@H](O)[C@H]1O,,,inactive,inactive,
O=c1cc(-c2ccc(O)cc2)oc2cc(O)cc(O)c12,,60,inactive,inactive,Activity [6]: 1.6; Activity (Escherichia coli): inactive; Activity [7]: 8.7%
Oc1cc(O)c2c(c1)O[C@H](c1ccc(O)c(O)c1)[C@@H](O)C2,,,inactive,inactive,
O=c1c(-c2ccc(O)cc2)coc2cc(O)cc(O)c12 [GENISTEIN],111,,,inactive,Activity [6]: 3.1; Activity [8]: Active; Activity [9]: Active; Activity (Escherichia coli): inactive; Activity [7]: 16.2%
O=c1c(O)c(-c2ccc(O)c(O)c2)oc2cc(O)cc(O)c12 [QUERCETIN],22.8,60,,,Activity [6]: 2.2; Activity (Bos taurus [10]): Active; Activity [11]: Active; Activity (Escherichia coli): inactive; IC50 [2]: 12.8 µg/mL; Activity [7]: 11.5%
O=c1c(O)c(-c2ccc(O)cc2O)oc2cc(O)cc(O)c12 [MORIN],135,< 50,,,IC50 [2]: 42.1 µg/mL
O=c1c(O)c(-c2ccccc2)oc2ccccc12,,,inactive,inactive,
O=c1c(-c2ccc(O)c(O)c2)coc2cc(O)ccc12,,,inactive,inactive,
O=c1c(O)c(-c2ccc(O)cc2)oc2cc(O)cc(O)c12,,60,inactive,inactive,Activity [6]: 1.6; Activity (Escherichia coli): inactive; Activity [7]: 8.3%
O=c1c(O)c(-c2ccccc2)oc2cc(O)cc(O)c12,,,inactive,inactive,
O=c1c(O)c(-c2cc(O)c(O)c(O)c2)oc2cc(O)cc(O)c12 [MYRICETIN],,,,,Activity [12]: inactive; Activity [13]: inactive; Activity [14]: Active; Activity (Bos taurus [15]): inactive; Activity [16]: Active; IC50 [2]: 11.9 µg/mL
O=c1c(-c2ccc(O)cc2)coc2cc(O)ccc12,,,inactive,inactive,
O=c1cc(-c2ccccc2)oc2ccc(O)cc12,,< 50,inactive,inactive,

# Reference: ChEMBL document CHEMBL1159219, “Flavonoids as DNA topoisomerase antagonists and poisons: structure-activity relationships” (J Nat Prod, 1995)
